One experiment addresses JAK1 (Homo sapiens (Human), UniProt P23458). Briefly: JAK1 Kinase Assay Protocol. Conditions: GST-JAK1; ATP 100 μM; Caliper LabChip; read-out: LLE_JAK1 (IC50). In kind it is biochemical. Here is the method: JAK1 Kinase Assay Protocol
The assay reactions were performed in U-bottom 384-well plates. The final assay volume was 30 μl prepared from 15 μl additions of enzyme and substrates (fluoresceinated peptide and ATP) and test compounds in assay buffer (20 mM HEPES pH 7.4, 10 mM MgCl2, 25 mM beta-glycerol phosphate, 0.015% Brij35 and 4 mM DTT). The reaction was initiated by the combination of GST-JAK1 enzyme with substrates and test compounds. The reactions were incubated at room temperature for 3 hours and terminated by adding 60 μl of 35 mM EDTA to each sample. […] The final concentration of reagents in the assays was: ATP, 100 μM; fluoresceinated peptide, 1.5 μM; GST-JAK1, 12.5 nM; and DMSO, 1.6%. […] Compounds were dissolved at 10 mM in dimethylsulfoxide (DMSO) and evaluated at eleven concentrations. IC50 values were derived by non-linear regression analysis.

The target of a further experiment is JAK3 (Homo sapiens (Human), UniProt P52333). In words: JAK3 Kinase Assay (Caliper / Filter protocols). In kind it is biochemical. Conditions: JAK3 kinase inhibition; ATP 8 μM; read-out: LLE_JAK3_FB (IC50). Here is the method:
JAK3 Kinase Assay Protocol (Caliper)
The assay reactions were performed in U-bottom 384-well plates. […] The reaction was initiated by the combination of GST-JAK3 enzyme with substrates and test compounds. The reactions were incubated at room temperature for 3 hours and terminated by adding 60 μl of 35 mM EDTA to each sample. […] Compounds were dissolved at 10 mM in dimethylsulfoxide (DMSO) and evaluated at eleven concentrations. IC50 values were derived by non-linear regression analysis.
JAK3 Kinase Assay Protocol (Filter)
Kinase reactions consisted of 5 ng of JAK3 enzyme, 30 uM CSKtide substrate, 0.2 μCi ^33P γ-ATP, 8 μM ATP in 30 μl kinase buffer (50 mM Hepes, pH 8.0, 10 mM MgCl2, 1 mM EGTA, 2 mM DTT). Reactions were incubated for 30 minutes at room temperature and stopped by the addition of cold trichloroacetic acid (TCA) to a final concentration of 15%. TCA precipitates were collected onto 384 well phosphocellulose filters (Millipore) using a Platemate to transfer the reaction mixture, washed on an EMBLA plate washer and the filters were quantitated using a TopCount 384-well liquid scintillation counter. […] Compounds were dissolved at 10 mM in dimethylsulfoxide (DMSO) and evaluated at six concentrations, each in triplicate. The final concentration of DMSO in the assay equaled 2%. IC50 values were derived by non-linear regression analysis.

As usually defined, the IC50 is the concentration at which inhibition is half-maximal.

Chain of JAK3 (P52333 whole entry): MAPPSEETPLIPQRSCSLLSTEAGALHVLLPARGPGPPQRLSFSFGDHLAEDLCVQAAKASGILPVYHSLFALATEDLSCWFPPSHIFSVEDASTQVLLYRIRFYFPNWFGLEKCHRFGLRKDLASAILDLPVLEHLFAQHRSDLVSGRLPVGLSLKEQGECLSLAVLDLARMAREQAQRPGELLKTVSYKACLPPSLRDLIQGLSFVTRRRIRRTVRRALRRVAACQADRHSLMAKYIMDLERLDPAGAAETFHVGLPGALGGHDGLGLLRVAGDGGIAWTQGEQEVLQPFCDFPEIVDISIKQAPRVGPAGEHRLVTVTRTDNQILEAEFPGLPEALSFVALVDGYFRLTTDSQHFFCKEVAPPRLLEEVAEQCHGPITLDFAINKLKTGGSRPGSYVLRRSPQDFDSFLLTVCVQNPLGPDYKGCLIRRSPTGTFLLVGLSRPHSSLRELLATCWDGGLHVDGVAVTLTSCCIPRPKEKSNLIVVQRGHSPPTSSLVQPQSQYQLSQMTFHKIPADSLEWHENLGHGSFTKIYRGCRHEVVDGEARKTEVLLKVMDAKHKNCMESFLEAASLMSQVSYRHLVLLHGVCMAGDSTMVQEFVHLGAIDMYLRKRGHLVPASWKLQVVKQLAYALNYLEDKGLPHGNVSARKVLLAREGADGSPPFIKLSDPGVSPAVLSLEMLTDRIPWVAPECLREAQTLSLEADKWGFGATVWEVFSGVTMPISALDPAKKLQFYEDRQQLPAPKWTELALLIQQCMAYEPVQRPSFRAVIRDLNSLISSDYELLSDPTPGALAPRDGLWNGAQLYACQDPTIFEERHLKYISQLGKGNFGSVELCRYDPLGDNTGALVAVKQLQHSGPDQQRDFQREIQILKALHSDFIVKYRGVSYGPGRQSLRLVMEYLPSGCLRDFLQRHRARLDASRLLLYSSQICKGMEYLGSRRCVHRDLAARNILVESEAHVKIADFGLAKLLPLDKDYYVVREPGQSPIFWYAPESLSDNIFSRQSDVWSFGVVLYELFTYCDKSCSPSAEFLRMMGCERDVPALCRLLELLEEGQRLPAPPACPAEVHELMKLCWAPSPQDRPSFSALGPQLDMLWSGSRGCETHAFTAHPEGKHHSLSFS
Chain of JAK1 (P23458 whole entry): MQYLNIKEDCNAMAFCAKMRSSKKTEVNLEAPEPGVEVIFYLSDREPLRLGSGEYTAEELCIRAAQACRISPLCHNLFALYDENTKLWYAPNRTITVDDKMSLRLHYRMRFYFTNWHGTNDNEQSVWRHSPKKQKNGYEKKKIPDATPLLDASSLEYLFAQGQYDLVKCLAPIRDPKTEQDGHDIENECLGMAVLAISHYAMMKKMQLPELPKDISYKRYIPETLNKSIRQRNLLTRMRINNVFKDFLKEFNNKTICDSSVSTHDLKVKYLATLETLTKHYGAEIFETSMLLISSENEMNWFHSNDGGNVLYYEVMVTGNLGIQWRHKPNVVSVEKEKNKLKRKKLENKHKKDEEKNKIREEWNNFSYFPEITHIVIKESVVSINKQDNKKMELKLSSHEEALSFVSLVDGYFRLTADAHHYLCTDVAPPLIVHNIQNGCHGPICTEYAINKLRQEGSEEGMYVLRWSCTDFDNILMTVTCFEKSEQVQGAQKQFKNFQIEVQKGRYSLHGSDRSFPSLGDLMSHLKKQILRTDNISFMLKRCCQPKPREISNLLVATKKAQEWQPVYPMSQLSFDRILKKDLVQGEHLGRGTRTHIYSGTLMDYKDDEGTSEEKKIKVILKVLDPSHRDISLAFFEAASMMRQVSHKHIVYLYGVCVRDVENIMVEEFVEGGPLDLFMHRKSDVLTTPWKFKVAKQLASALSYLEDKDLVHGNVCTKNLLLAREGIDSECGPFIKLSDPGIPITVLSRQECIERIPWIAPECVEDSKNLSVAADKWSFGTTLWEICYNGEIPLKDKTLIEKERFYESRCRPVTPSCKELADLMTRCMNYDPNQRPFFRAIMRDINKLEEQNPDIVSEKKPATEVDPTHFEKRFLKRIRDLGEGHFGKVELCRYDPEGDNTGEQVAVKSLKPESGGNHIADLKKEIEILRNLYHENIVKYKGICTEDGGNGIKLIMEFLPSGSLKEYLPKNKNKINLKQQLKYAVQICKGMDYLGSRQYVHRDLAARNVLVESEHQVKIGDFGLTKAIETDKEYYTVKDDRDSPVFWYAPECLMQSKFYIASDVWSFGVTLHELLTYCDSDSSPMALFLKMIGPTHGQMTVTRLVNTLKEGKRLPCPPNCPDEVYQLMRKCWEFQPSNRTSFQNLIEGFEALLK

For `CC(=O)Nc1ccccc1-c1cc2c(N[C@@H]3CC[C@](C)(N)C3(C)C)c(C(N)=O)cnn2c1` [Example 257, 6-(2-acetamidophenyl)-4-(((1R,3S)-3-amino-2,2,3-trimethylcyclopentyl)amino)pyrrolo[1,2-b]pyridazine-3-carboxamide], the IC50 at JAK1 was determined as 30 nM; at JAK3, 36.9 nM.

As to `CN(C)C(=O)c1ccc(-c2cc3c(N[C@@H]4CC[C@](C)(N)C4(C)C)c(C(N)=O)cnn3c2)cc1` [Example 266, 4-(((1R,3S)-3-amino-2,2,3-trimethylcyclopentyl)amino)-6-(4-(dimethylcarbamoyl)phenyl)pyrrolo[1,2-b]pyridazine-3-carboxamide], the 50% inhibitory concentration (IC50) was found to be 0.6 nM at JAK1 and 0.8 nM on JAK3.

With `CC1(C)[C@H](Nc2c(C(N)=O)cnn3cc(-c4ccc(CO)cc4)cc23)CC[C@]1(C)N` [Example 271, 4-(((1R,3S)-3-amino-2,2,3-trimethylcyclopentyl)amino)-6-(4-(hydroxymethyl)phenyl) pyrrolo[1,2-b]pyridazine-3-carboxamide], the figures for the half-inhibitory concentration (IC50) on JAK1 and at JAK3 were 0.7 nM and 0.3 nM, respectively.

Regarding `CC1(C)[C@H](Nc2c(C(N)=O)cnn3cc(-c4cccc5ncccc45)cc23)CC[C@]1(C)N` [Example 272, 4-(((1R,3S)-3-amino-2,2,3-trimethylcyclopentyl)amino)-6-(5-quinolinyl)pyrrolo[1,2-b]pyridazine-3-carboxamide], the IC50 on JAK1 came to 5.4 nM; on JAK3, 13.8 nM.

For the molecule `CC1(C)[C@H](Nc2c(C(N)=O)cnn3cc(-c4cncc(C(=O)O)c4)cc23)CC[C@]1(C)N` [Example 276, 5-(4-(((1R,3S)-3-amino-2,2,3-trimethylcyclopentyl)amino)-3-carbamoylpyrrolo[1,2-b]pyridazin-6-yl)nicotinic acid], the IC50 amounted to 35.2 nM on JAK1 and 15 nM at JAK3.

In the case of `COc1ncc(-c2cc3c(N[C@@H]4CC[C@](C)(N)C4(C)C)c(C(N)=O)cnn3c2)cn1` [Example 278, 4-(((1R,3S)-3-amino-2,2,3-trimethylcyclopentyl)amino)-6-(2-methoxy-5-pyrimidinyl)pyrrolo[1,2-b]pyridazine-3-carboxamide], the IC50 at JAK1 was 25.1 nM; at JAK3, 8.4 nM.

For the molecule `COc1cncc(-c2cc3c(N[C@@H]4CC[C@](C)(N)C4(C)C)c(C(N)=O)cnn3c2)c1` [Example 286, 4-(((1R,3S)-3-amino-2,2,3-trimethylcyclopentyl)amino)-6-(5-methoxy-3-pyridinyl)pyrrolo[1,2-b]pyridazine-3-carboxamide], the IC50 on JAK1 was determined as 4.1 nM; at JAK3, 5.5 nM.

Take `CC1(C)[C@H](Nc2c(C(N)=O)cnn3cc(-c4ccccc4)cc23)CC[C@@]1(C)O` [Example 293, 4-(((1R,3R)-3-hydroxy-2,2,3-trimethylcyclopentyl)amino)-6-phenylpyrrolo[1,2-b]pyridazine-3-carboxamide]: the IC50 on JAK1 came out at 0.1 nM; at JAK3 it was 0.2 nM.

Turning to `NC(=O)c1cnn2cc(-c3ccc(F)cc3)cc2c1NC12CC3CC(O)(CC(O)(C3)C1)C2` [Example 298, 4-((3,5-dihydroxyadamantan-1-yl)amino)-6-(4-fluorophenyl)pyrrolo [1,2-b]pyridazine-3-carboxamide], the results for the concentration for half-maximal inhibition (IC50) at JAK1 and on JAK3 were 2.1 nM and 4.7 nM, respectively.

With `NC(=O)c1cnn2cc(-c3ccc4scnc4c3)cc2c1NC12CC3CC(O)(CC(O)(C3)C1)C2` [Example 299, 6-(1,3-benzothiazol-5-yl)-4-((3,5-dihydroxyadamantan-1-yl)amino)pyrrolo [1,2-b]pyridazine-3-carboxamide], the values for the IC50 on JAK1 and at JAK3 were 4.3 nM and 7.3 nM, respectively.

For `CC1(C)CCC[C@H]1Nc1c(C(N)=O)cnn2cc(-c3ccccc3)cc12` [Example 304, 4-(((1R)-2,2-dimethylcyclopentyl)amino)-6-phenylpyrrolo[1,2-b] pyridazine-3-carboxamide], the half-inhibitory concentration (IC50) is 2.9 nM on JAK1 and 0.5 nM at JAK3.

`CC1(C)[C@H](Nc2c(C(N)=O)cnn3cc(N4CCOCC4=O)cc23)CC[C@]1(C)N` [Example 312, 4-(((1R,3S)-3-amino-2,2,3-trimethylcyclopentyl)amino)-6-(3-oxo-4-morpholinyl)pyrrolo[1,2-b]pyridazine-3-carboxamide]: the half-maximal inhibitory concentration (IC50) at JAK1 was 69.4 nM; at JAK3, 44.2 nM.

In the case of `C[C@]1(O)CC[C@@H](Nc2c(C(N)=O)cnn3cc(-c4cncnc4N)cc23)CC1` [Example 316, 6-(4-amino-5-pyrimidinyl)-4-((cis-4-hydroxy-4-methylcyclohexyl)amino)pyrrolo[1,2-b]pyridazine-3-carboxamide], the values for the half-inhibitory concentration (IC50) at JAK1 and on JAK3 were 37.3 nM and 11 nM, respectively.

As for `C[C@]1(F)CCC[C@H]1Nc1c(C(N)=O)cnn2cc(N3CCOC3=O)cc12` [Example 317], the IC50 stood at 13.6 nM at JAK1 and 6.8 nM on JAK3.

Take `CC1(C)[C@H](Nc2c(C(N)=O)cnn3cc(N4CCCC4=O)cc23)CC[C@]1(C)N` [Example 328]: the IC50 at JAK1 worked out at 20.2 nM; on JAK3, 1.7 nM.

Take `CC1(C)[C@H](Nc2c(C(N)=O)cnn3cc(N4CCC4=O)cc23)CC[C@]1(C)N` [Example 332]: the half-maximal inhibitory concentration (IC50) worked out at 75.7 nM on JAK1 and 8.8 nM at JAK3.

In the case of `COc1ccc(-c2cc3c(N[C@@H]4CC[C@](C)(NS(C)(=O)=O)C4(C)C)c(C(N)=O)cnn3c2)cn1` [Example 336, 6-(6-methoxy-3-pyridinyl)-4-(((1R,3S)-2,2,3-trimethyl-3-((methylsulfonyl)amino)cyclopentyl)amino)pyrrolo[1,2-b]pyridazine-3-carboxamide], the 50% inhibitory concentration (IC50) at JAK1 was 4.3 nM; on JAK3 it was 1.7 nM.

Regarding `CC1(C)[C@H](Nc2c(C(N)=O)cnn3cc(-c4ccccc4)cc23)CC[C@]1(C)C(N)=O` [Example 337, 4-((1R,3S)-3-carbamoyl-2,2,3-trimethylcyclopentylamino)-6-phenylpyrrolo[1,2-b]pyridazine-3-carboxamide], the half-inhibitory concentration (IC50) was determined as 1.4 nM on JAK1 and 0.4 nM at JAK3.

As for `COc1ccc(-c2cc3c(N[C@@H]4CC[C@](C)(C(N)=O)C4(C)C)c(C(N)=O)cnn3c2)cn1` [Example 338, 4-((1R,3S)-3-carbamoyl-2,2,3-trimethylcyclopentylamino)-6-(6-methoxypyridin-3-yl)pyrrolo[1,2-b]pyridazine-3-carboxamide], the half-maximal inhibitory concentration (IC50) on JAK1 worked out at 1.2 nM; on JAK3 it was 0.3 nM.

As to `CC1(C)[C@H](Nc2c(C(N)=O)cnn3cc(-c4ccc(F)nc4)cc23)CC[C@]1(C)C(N)=O` [Example 339, 4-(((1R,3S)-3-carbamoyl-2,2,3-trimethylcyclopentyl)amino)-6-(6-fluoropyridin-3-yl)pyrrolo[1,2-b]pyridazine-3-carboxamide], the concentration for half-maximal inhibition (IC50) on JAK1 was found to be 2.2 nM; at JAK3, 1.9 nM.
